Reference: US20210276978A1, “INHIBITORS OF HISTONE DEACETYLASE” (Alkermes, Inc., priority 2018, published 2021)

Columns and labels:
[1] = molecular target: T1, HDAC2 (Homo sapiens, UniProt Q92769); experiment: HDAC2 enzymatic inhibition assay in SH-SY5Y cell lysate with an exogenous substrate (HDAC-Glo 2); assay type: cell-based; details: for IC50: SH-SY5Y cells
T1 construct: host or cells: SH-SY5Y cells
Procedure: HDAC2 Enzymatic Inhibition Assay in SH-SY5Y Cell Lysate with an Exogenous Substrate
SH-SY5Y cells (Sigma) were cultured in Eagle's Modified Essential Medium supplemented with 10% fetal bovine serum and pen/strep. Twenty-four hours prior to compound dosing 20 uL of cells were plated in white 384 well plates at a density of 1,500 cells/well. Compounds were serially diluted in neat DMSO and then diluted 1:100 v/v into media without FBS and mixed. Media was removed from the plated cells and the diluted compounds in serum free media (1% v/v final DMSO) were added and incubated at 37.0 for five hours. Ten uL of HDAC-Glo 2 reagent with 0.1% Triton X-100 was then added, the plate was mixed and allowed to develop at room temperature for 100 minutes. Plates were then read with a Spectramax LMax luminometer employing a 0.4 s integration time. Dose response curves were constructed with normalized data where CI-994 at 100 uM was defined as 100% inhibition and DMSO alone as 0% inhibition.
In the table, “A” indicates a IC50 value of less than 0.5 μM; “B” a IC50 value from 0.5 μM to 1.0 μM; “C” a IC50 value of greater than 1.0 μM and less than or equal to 2.0 μM; and “D” indicates an IC50 value of greater than 2.0 μM. NT=Not Tested.

[2] = molecular target: T2, Full length Human HDAC1 (Homo sapiens, UniProt Q13547); experiment: HDAC1 enzymatic assay (deacetylation of FAM-labeled peptide substrate, microfluidic electrophoresis); assay type: biochemical; details: 1 uM substrate peptide
T2 construct: Full length Human HDAC1 with; His (C); FLAG (C); host or cells: baculovirus expression system
T2 sequence (Q13547 whole entry): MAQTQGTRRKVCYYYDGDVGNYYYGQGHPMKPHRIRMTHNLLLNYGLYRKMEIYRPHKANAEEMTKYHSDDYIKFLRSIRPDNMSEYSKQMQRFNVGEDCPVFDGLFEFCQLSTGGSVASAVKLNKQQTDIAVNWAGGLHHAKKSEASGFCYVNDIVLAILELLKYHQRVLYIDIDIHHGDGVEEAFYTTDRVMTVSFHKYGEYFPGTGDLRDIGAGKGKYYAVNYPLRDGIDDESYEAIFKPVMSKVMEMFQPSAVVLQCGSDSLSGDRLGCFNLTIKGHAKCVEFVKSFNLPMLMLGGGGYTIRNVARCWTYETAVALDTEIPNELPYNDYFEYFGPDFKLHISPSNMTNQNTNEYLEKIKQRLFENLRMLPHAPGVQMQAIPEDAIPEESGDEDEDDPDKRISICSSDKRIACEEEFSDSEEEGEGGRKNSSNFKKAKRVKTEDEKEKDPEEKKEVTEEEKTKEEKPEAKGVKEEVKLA
Procedure: (§1) HDAC2 and HDAC1 Enzymatic Assay (HDAC2 and HDAC1 IC50 Data)
(§2) The following describes an assay protocol for measuring the deacetylation of a peptide substrate by HDAC2 or HDAC1.
(§3) HDAC protein composition and respective substrate peptides are summarized below.
(§4) HDAC reactions are assembled in 384 well plates (Greiner) in a total volume of 20 µL as following:
(§5) HDAC proteins are pre-diluted in the assay buffer comprising: 100 mM HEPES, pH 7.5, 0.1% BSA, 0.01% Triton X-100, 25 mM KCl and dispensed into 384 well plate (10 uL per well).
(§6) Test compounds are serially pre-diluted in DMSO and added to the protein samples by acoustic dispensing (Labcyte Echo). Concentration of DMSO is equalized to 1% in all samples.
(§7) Control samples (0%-inhibition in the absence of inhibitor, DMSO only) and 100%-inhibition (in the absence of enzyme) are assembled in replicates of four and used to calculate the %-inhibition in the presence of compounds.
(§8) At this step compounds can be pre-incubated with enzyme if desired.
(§9) The reactions are initiated by addition of 10 uL of the FAM-labeled substrate peptide pre-diluted in the same assay buffer. Final concentration of substrate peptide is 1 uM (HDAC1-2). The reactions are allowed to proceed at room temperature. Following incubation, the reactions are quenched by addition of 50 µL of termination buffer (100 mM HEPES, pH7.5, 0.01% Triton X-100, 0.1% SDS). Terminated plates are analyzed on a microfluidic electrophoresis instrument (Caliper LabChip® 3000, Caliper Life Sciences/Perkin Elmer) which enables electrophoretic separation of de-acetylated product from acetylated substrate. A change in the relative intensity of the peptide substrate and product is the parameter measured. Activity in each test sample is determined as the product to sum ratio (PSR): P/(S+P), where P is the peak height of the product, and S is the peak height of the substrate. Percent inhibition (Pinh) is determined using the following equation: Pinh=(PSR0% inh−PSRcompound)/(PSR0% inh−PSR100% inh)*100, in which: PSRcompound is the product/sum ratio in the presence of compound, PSR0% inh is the product/sum ratio in the absence of compound and the PSR100% inh is the product/sum ratio in the absence of the enzyme. To determine IC50 of compounds (50%-inhibition) the %-inh data (Pinh versus compound concentration) are fit by a 4 parameter sigmoid dose-response model using XLfit software (IDBS).
(§10) In the table, “A” indicates a IC50 value of less than 0.5 “B” a IC50 value from 0.5 μM to 1.0 μM; “C” a IC50 value of greater than 1.0 μM and less than or equal to 2.0 μM; and “D” indicates an IC50 value of greater than 2.0 NT=Not Tested.

[3] = molecular target: T3, Full length Human HDAC2 (Homo sapiens, UniProt Q92769); experiment: HDAC2 enzymatic assay (deacetylation of FAM-labeled peptide substrate, microfluidic electrophoresis); assay type: biochemical; details: 1 uM substrate peptide
T3 construct: Full length Human HDAC2 with; FLAG (C); host or cells: baculovirus expression system
T3 sequence (Q92769 whole entry): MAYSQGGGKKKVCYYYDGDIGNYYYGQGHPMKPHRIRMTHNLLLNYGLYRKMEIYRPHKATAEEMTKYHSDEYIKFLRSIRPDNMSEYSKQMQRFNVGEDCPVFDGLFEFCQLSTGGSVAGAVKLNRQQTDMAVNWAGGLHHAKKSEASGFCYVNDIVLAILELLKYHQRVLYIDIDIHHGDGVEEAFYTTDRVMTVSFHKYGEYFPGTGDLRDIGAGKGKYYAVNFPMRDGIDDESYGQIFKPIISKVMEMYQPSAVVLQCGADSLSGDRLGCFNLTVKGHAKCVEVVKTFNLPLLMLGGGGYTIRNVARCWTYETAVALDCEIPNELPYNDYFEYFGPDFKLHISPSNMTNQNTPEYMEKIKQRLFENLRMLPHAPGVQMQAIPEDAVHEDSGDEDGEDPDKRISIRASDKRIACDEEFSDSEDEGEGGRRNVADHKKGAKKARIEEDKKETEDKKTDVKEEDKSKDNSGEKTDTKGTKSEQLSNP
Procedure: as §1, §2, §3, §4, §5, §6, §7, §8, §9, §10

[4] = five hours incubation, HDAC-Glo 2 reagent, class symbols
[5] = HDAC2 SH-SY5Y cell lysate assay
[6] = HDAC-Glo 2, numeric values, Table 4

T1 sequence (Q92769 whole entry): as above

Row | SMILES | IC50 [1, 4] [nM] | IC50 [2] [nM] | IC50 [3] [nM] | other results
1 | Nc1ccc(-c2ccc(F)cc2F)nc1NC(=O)N1CCC(c2ncccn2)C1 (single isomer, unassigned) [Compound 8E1] |  | < 500 | < 500 | 
2 | Nc1ccc(-c2ccc(F)cc2F)nc1NC(=O)N1CCC(Cn2cccn2)C1 (stereo not drawn) [Compound 35] | > 2000 |  |  | 
3 | Nc1ccc(-c2ccc(F)cc2F)nc1NC(=O)N1CCC(c2ncc(F)cn2)C1 (single isomer, unassigned) [Compound 14E2] | > 2000 | 500 to 1000 | > 2000 | 
4 | Cc1cc(C)nc(C2CCN(C(=O)Nc3nc(-c4ccc(F)cc4F)ccc3N)C2)n1 (stereo not drawn) [Compound 16] | > 2000 |  |  | 
5 | Nc1ccc(-c2ccc(Cl)s2)nc1NC(=O)N1CCC(c2ncccn2)C1 (stereo not drawn) [Compound 42] | > 2000 |  |  | 
6 | Nc1ccc(-c2ccc(F)cc2F)nc1NC(=O)N1CCC(Oc2cccnn2)C1 (stereo not drawn) [Compound 22] | > 2000 |  |  | 
7 | Nc1ccc(-c2ccc(F)cc2)nc1NC(=O)N1CCCC1 [Comparator A, reference compound] |  |  |  | IC50 [1, 6]: 2640 nM
8 | Cc1cnc(C2CCN(C(=O)Nc3nc(-c4ccc(F)cc4)ccc3N)C2)o1 (stereo not drawn) [Compound 46] | > 2000 | 500 to 1000 | 1000 to 2000 | 
9 | Nc1ccc(-c2ccc(F)cc2)nc1NC(=O)N1CCC(F)(F)C1 [Comparator B, reference compound] |  |  |  | IC50 [1, 6]: 14000 nM
10 | Nc1ccc(-c2ccc(F)cc2F)nc1NC(=O)N1CCC(c2cnc(C(F)F)cn2)C1 (stereo not drawn) [Compound 37] | > 2000 |  |  | 
11 | Nc1ccc(-c2ccc(F)cc2F)nc1NC(=O)N1CC[C@@H](Oc2cccnc2)C1 [Compound 5] | > 2000 |  |  | 
12 | Cc1cnc(C2CCN(C(=O)Nc3nc(-c4ccc(F)cc4F)ccc3N)C2)nc1 (stereo not drawn) [Compound 33] | > 2000 |  |  | 
13 | COCC1CCN(C(=O)Nc2nc(-c3ccc(F)cc3)ccc2N)C1 (stereo not drawn) [Comparator E, reference compound] |  |  |  | IC50 [1, 6]: > 100000 nM
14 | Nc1ccc(-c2ccc(F)cc2)nc1NC(=O)N1CCC(C(F)(F)F)C1 (stereo not drawn) [Comparator C, reference compound] |  |  |  | IC50 [1, 6]: 6360 nM
15 | Cc1cnc(CC2CCN(C(=O)Nc3nc(-c4ccc(F)cc4F)ccc3N)C2)o1 (stereo not drawn) [Compound 47] | > 2000 |  |  | 
16 | Nc1ccc(-c2ccc(F)cc2F)nc1NC(=O)N1CCC(Cn2ccnc2)C1 (stereo not drawn) [Compound 34] | > 2000 |  |  | 
17 | Nc1ccc(-c2ccc(F)cc2F)nc1NC(=O)N1CC[C@H](Oc2cccnc2)C1 [Compound 6] | > 2000 |  |  | 
18 | Nc1ccc(-c2ccc(F)cc2F)nc1NC(=O)N1CCC(c2ncccn2)C1 (single isomer, unassigned) [Compound 8E2] |  | 1000 to 2000 | 1000 to 2000 | 
19 | Cc1nccc(C2CCN(C(=O)Nc3nc(-c4ccc(F)cc4F)ccc3N)C2)n1 (stereo not drawn) [Compound 15] | > 2000 |  |  | 
20 | Cc1ccc(C2CCN(C(=O)Nc3nc(-c4ccc(F)cc4F)ccc3N)C2)cn1 (stereo not drawn) [Compound 11] | > 2000 |  |  | 

Continued, in another order:

Row | IC50 [1, 4] [nM] | IC50 [2] [nM] | IC50 [3] [nM] | SMILES | other results
21 | 500 to 1000 | < 500 | 500 to 1000 | Nc1ccc(-c2cccs2)nc1NC(=O)N1CCC(c2ncccn2)C1 (stereo not drawn) [Compound 41] | 
22 | > 2000 |  |  | Cc1cc(C2CCN(C(=O)Nc3nc(-c4ccc(F)cc4F)ccc3N)C2)nc(C)n1 (stereo not drawn) [Compound 13] | 
23 | 500 to 1000 | 500 to 1000 | 1000 to 2000 | Nc1ccc(-c2ccc(F)s2)nc1NC(=O)N1CCC(F)(c2ncccn2)C1 (stereo not drawn) [Compound 45] | 
24 | 1000 to 2000 | 500 to 1000 | 500 to 1000 | Nc1ccc(-c2ccc(F)cc2)nc1NC(=O)N1CCC(c2ncc(F)cn2)C1 (single isomer, unassigned) [Compound 20E1] | 
25 | > 2000 |  |  | COCc1cccc(C2CCN(C(=O)Nc3nc(-c4ccc(F)cc4F)ccc3N)C2)n1 (stereo not drawn) [Compound 12] | 
26 | 1000 to 2000 |  |  | Cc1ccc(CC2CCN(C(=O)Nc3nc(-c4ccc(F)cc4F)ccc3N)C2)nn1 (stereo not drawn) [Compound 28] | 
27 | > 2000 |  |  | Cc1cnc(C2CCN(C(=O)Nc3nc(-c4ccc(F)cc4F)ccc3N)C2)s1 (stereo not drawn) [Compound 30] | 
28 | 1000 to 2000 |  |  | Cc1nnc(C2CCN(C(=O)Nc3nc(-c4ccc(F)cc4F)ccc3N)C2)s1 (stereo not drawn) [Compound 32] | 
29 | 500 to 1000 | 1000 to 2000 | > 2000 | Nc1ccc(-c2ccc(F)cc2F)nc1NC(=O)N1CCC(Cc2ncccn2)C1 (single isomer, unassigned) [Compound 25E2] | 
30 | < 500 | < 500 | < 500 | Nc1ccc(-c2ccc(F)cc2)nc1NC(=O)N1CCC(c2ncccn2)C1 (stereo not drawn) [Compound 19] | potency compared with Comparators A-C [1, 5]: greater potency; IC50 [1, 6]: 421 nM
31 | 1000 to 2000 | 500 to 1000 | 500 to 1000 | Nc1ccc(-c2ccc(F)cc2F)nc1NC(=O)N1CCC(c2ncc(F)cn2)C1 (stereo not drawn) [Compound 14] | 
32 | > 2000 | 1000 to 2000 | 1000 to 2000 | Nc1ccc(-c2ccc(F)s2)nc1NC(=O)N1CCC(c2ncccn2)C1 (single isomer, unassigned) [Compound 39] | 
33 | > 2000 | 500 to 1000 | 1000 to 2000 | Nc1ccc(-c2ccc(F)cc2F)nc1NC(=O)N1CCC(c2ccccn2)C1 (stereo not drawn) [Compound 1] | 
34 | 1000 to 2000 | 500 to 1000 | 1000 to 2000 | Nc1ccc(-c2ccc(F)cc2F)nc1NC(=O)N1CCC(c2cccnn2)C1 (stereo not drawn) [Compound 9] | 
35 | > 2000 |  |  | Nc1ccc(-c2ccc(F)cc2F)nc1NC(=O)N1CCC(Cc2cccnc2)C1 (stereo not drawn) [Compound 31] | 
36 | 500 to 1000 | < 500 | 500 to 1000 | Nc1ccc(-c2ccc(F)cc2F)nc1NC(=O)N1CCC(c2ncccn2)C1 (racemic) [Compound 7] | 
37 | 1000 to 2000 | < 500 | 500 to 1000 | Nc1ccc(-c2ccc(F)cc2)nc1NC(=O)N1CCC(c2ncc(F)cn2)C1 (stereo not drawn) [Compound 20] | fold more potent than Comparator A [1, 5]: > 2 fold; potency compared with Comparators A-C [1, 5]: greater potency; IC50 [1, 6]: 1130 nM
38 | 500 to 1000 | < 500 | < 500 | Nc1ccc(-c2ccc(F)cc2)nc1NC(=O)N1CCC(c2ncccn2)C1 (single isomer, unassigned) [Compound 19E2] | 
39 | 500 to 1000 | < 500 | < 500 | Nc1ccc(-c2ccc(F)cc2)nc1NC(=O)N1CCC(F)(c2ncccn2)C1 (single isomer, unassigned) [Compound 55] | 
40 | 500 to 1000 | 1000 to 2000 | 1000 to 2000 | Nc1ccc(-c2ccc(F)cc2F)nc1NC(=O)N1CCC(Cc2ncccn2)C1 (single isomer, unassigned) [Compound 25E1] | 
41 | 500 to 1000 | < 500 | 500 to 1000 | Nc1ccc(-c2ccc(F)s2)nc1NC(=O)N1CCC(c2ncc(F)cn2)C1 (single isomer, unassigned) [Compound 44] | 
42 | 1000 to 2000 | < 500 | 1000 to 2000 | Nc1ccc(-c2cccs2)nc1NC(=O)N1CCC(c2ncc(F)cn2)C1 (stereo not drawn) [Compound 49] | 
43 | 1000 to 2000 | < 500 | 500 to 1000 | Cc1ccnc(C2CCN(C(=O)Nc3nc(-c4ccc(F)cc4F)ccc3N)C2)n1 (stereo not drawn) [Compound 10] | 
44 | 1000 to 2000 |  |  | Cc1cncc(C2CCN(C(=O)Nc3nc(-c4ccc(F)cc4F)ccc3N)C2)n1 (stereo not drawn) [Compound 17] | 
45 | 1000 to 2000 |  |  | Cc1ccnc(CC2CCN(C(=O)Nc3nc(-c4ccc(F)cc4F)ccc3N)C2)n1 (stereo not drawn) [Compound 27] | 
